As usually defined, the IC50 is the concentration that gives 50% inhibition.

Read-outs that look alike come from different tables or passages of the source. Residues, ends and D or L forms follow the SMILES beside them.

In assay [1] the target is T1, Angiotensin-I converting enzyme (ACE) (from rabbit lungs) (Oryctolagus cuniculus, UniProt P12822).
T1 construct: Angiotensin-I converting enzyme (ACE) (from rabbit lungs); purchased Sigma-Aldrich Co. (St. Louis, MO, United States); host or cells: rabbit lung tissue
T1 sequence (P12822 34-1310): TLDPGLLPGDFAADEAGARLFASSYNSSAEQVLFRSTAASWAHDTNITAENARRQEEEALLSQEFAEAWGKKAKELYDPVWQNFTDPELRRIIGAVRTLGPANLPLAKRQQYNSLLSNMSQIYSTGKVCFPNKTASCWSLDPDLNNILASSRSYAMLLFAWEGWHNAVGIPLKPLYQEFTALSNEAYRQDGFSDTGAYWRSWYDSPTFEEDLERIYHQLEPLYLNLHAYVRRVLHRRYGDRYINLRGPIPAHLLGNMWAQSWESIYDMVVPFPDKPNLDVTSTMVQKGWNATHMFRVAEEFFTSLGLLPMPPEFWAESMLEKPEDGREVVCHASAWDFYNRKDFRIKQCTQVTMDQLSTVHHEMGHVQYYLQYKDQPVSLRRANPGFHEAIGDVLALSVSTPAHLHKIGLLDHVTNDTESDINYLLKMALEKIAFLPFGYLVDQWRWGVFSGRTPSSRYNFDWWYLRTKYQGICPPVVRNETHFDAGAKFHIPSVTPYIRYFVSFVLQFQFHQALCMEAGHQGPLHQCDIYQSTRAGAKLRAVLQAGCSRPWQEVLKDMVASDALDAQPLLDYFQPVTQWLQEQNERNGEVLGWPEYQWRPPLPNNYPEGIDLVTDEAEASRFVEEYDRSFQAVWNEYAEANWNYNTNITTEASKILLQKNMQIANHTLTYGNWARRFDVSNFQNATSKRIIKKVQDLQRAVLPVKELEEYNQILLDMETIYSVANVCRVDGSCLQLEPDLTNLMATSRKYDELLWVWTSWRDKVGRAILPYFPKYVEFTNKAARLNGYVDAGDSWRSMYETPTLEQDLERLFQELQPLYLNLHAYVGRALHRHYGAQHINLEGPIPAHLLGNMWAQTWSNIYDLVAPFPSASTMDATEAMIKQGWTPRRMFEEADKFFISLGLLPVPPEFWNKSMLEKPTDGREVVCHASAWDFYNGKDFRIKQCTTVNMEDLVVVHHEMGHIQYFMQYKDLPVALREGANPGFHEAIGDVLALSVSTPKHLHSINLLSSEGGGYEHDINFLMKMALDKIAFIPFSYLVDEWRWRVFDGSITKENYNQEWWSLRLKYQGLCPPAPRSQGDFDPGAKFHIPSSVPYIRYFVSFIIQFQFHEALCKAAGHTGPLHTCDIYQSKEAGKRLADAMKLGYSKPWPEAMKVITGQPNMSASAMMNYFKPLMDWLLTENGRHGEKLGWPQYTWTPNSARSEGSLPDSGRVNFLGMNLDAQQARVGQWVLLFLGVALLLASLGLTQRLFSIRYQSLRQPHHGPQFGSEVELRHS
Nature of the assay: ACE-inhibitory activity assay (HHL substrate, HPLC of hippuric acid). The class given is biochemical. The note with it: peptide 2 mg/mL, HHL 5 mM, ACE 0.1 U/mL, 37°C, 5 min pre-incubation, 60 min, triplicate.

For assay [2], the target named is T1, Angiotensin-I converting enzyme (ACE) (from rabbit lungs). The assay is described as above. Format: biochemical. The protocol: The ACEI activity of the synthesized peptides was measured following the reported method with a minor modification ([22]). The experiment was carried out in a 1.5 mL PE tube. Briefly, for each assay, 20 μL of the inhibitor (1 mg/ml) was mixed with 120 μL of the HHL solution in the concentration of 5 mM. The mixture was first preincubated at a constant temperature of 37°C for 5 min, 10 μL ACE (0.1 U/mL) was then added to start the reaction, and to incubate at 37°C for 60 min. In the end, 150 μl HCl (1M) was used to terminate the reaction. Meanwhile, the inhibitor solution was replaced with 20 μL boric acid buffer solution (0.1 mol/L, pH 7.3, containing 0.3 mol/L NaCl) as a blank control group. The HPLC system was equipped with a ZORBAX Eclipse SB-C18 column (5 μm particle size, 4.6 × 150 mm). To analyze the releasing amount of hippuric acid under the action of ACE, the elution was conducted in 25% Mobile Phase A (ACN) and 75% Mobile Phase B (0.05% TFA in ultrapure water) for 25 min with a flow rate of 0.8 mL/min. The ACE inhibitory activity percentage (%) was calculated based on the equation below:
ACEinhibitionrate(%)=(B-S)/B×100
Where B and S are the chromatographic peak areas of the control group and the sample tested, respectively. IC50 is the inhibitor concentration capable of inhibiting 50% of ACE activity under the described experimental conditions, which was estimated by non-linear regression of ACE inhibition (%) against different inhibitor concentrations by using SPSS software.

Assay [3] has the same target. The assay is described as follows: Kinetics of ACE inhibition (Lineweaver-Burk plot). Format: biochemical. The note with it: HHL 1–10 mM, peptide 1 and 2 mg/mL. How it is done:
To explore the inhibition pattern of the peptide and clarify the kinetics of ACEI activity, the Lineweaver-Burk plot was employed in our study. The various concentrations of the HHL solution were 1, 2, 5, 8, and 10 mM, and the concentration of synthesized peptide was set as 2 mg/mL. Various concentrations of HHL and peptide were incubated in ACE solutions. The Y-intercept of the Lineweaver-Burk plot represents the reciprocal of the maximum velocity (Vmax^–1), while the X-intercept is the reciprocal of the Michaelis-Menten constant (Km^–1).

Assay [4] has as its system SHRs (spontaneously hypertensive rats). Nature of the assay: Blood pressure of SHRs after single intragastric administration (tail-cuff). Format: in vivo, rat. The protocol:
Male SHRs aged 10–12 weeks old, body weight (BW) of 220–250 g, and blood pressure over 180 mmHg were purchased from Trophic Animal Feed High-tech Co. Ltd., (Nantong, China). Six SHRs were administrated individually in each cage with the stable room temperature (25 ± 0.5°C), the humidity of 55 ± 5%, and a 12-h light to12-h dark cycle. Food and water were freely accessed. Rats were accustomed to the above environment for 2 weeks before the experiment. […] The SHRs were randomly grouped in 3. Rats were gavage administered with peptide at 15 mg/kg⋅BW/day in the experiment group. […] All rats were gavaged with their daily dose at 8 am, and the blood pressure was measured every 3 h by 4 times, which was using the tail-cuff method ([27]). Briefly, rats were covered with a fixed device but could let their tail leak out (MK2000ST, Muromachi Kikai Co., Ltd., Japan). A cuff was curled around the tail to measure the diastolic blood pressure (DBP) and systolic blood pressure (SBP).

For another assay, the system named is ACE. To be noted: cited from earlier work. The source says: The inhibitory patterns of the ACEI peptides mainly contain competitive inhibition, non-competitive inhibition, and mixed inhibition according to their various structures. […] Non-competitive A ... || The Lineweaver-Burk plots were employed to elucidate the ACE inhibition kinetic of the synthetic peptide […], shown in Figure 2B. Whereas the Vmax was the same when the concentrations of the inhibitory peptide increased, the Km/Vmax value increased. […] Among all the ACE inhibition patter ...

The subject of assay [5] is Ren1 / Adrb3 expression in SHRs. Further details: method as in 2 sources, one per row (each row's own in cited_ref): ref [45] = [45]; PMID 24404915; doi:10.1021/jf405189y; 45. Yu ZP Yin YG Zhao WZ Chen F Liu JB . Antihypertensive effect of angiotensin-converting enzyme inhibitory peptide RVPSL on spontaneously hypertensive rats by regulating gene expression of the renin ||| ref [46] = [46]; PMID 26517713; doi:10.1371/journal.pone.0142016; 46. Feng J Dai Z Zhang Y Meng L Ye J Ma X . Alteration of gene expression profile in kidney of spontaneously hypertensive rats treated with protein hydrolysate of blue mussel ( Mytilus edulis ) by DNA. To be noted: SHRs orally administered 50 mg/kg; ref [45]; cited from earlier work.

[6] abbreviates: peptide 1 mg/mL, HHL 5 mM, ACE 0.1 U/mL, 37°C, 5 min pre-incubation, 60 min, HPLC of hippuric acid, triplicate.
[7] abbreviates: clinical drugs for hypertension, ref [30].
[8] abbreviates: food-derived peptides, ref [41], [42].
[9] abbreviates: food-derived peptides, ref [32], [37].
The mark [10] stands for this setting: food-derived peptides, ref [43], [44].

With `CC(C)C[C@H](NC(=O)[C@H](Cc1ccc(O)cc1)NC(=O)[C@H](CCC(=O)O)NC(=O)[C@H](C)N)C(=O)N[C@@H](CS)C(=O)N[C@@H](CCC(=O)O)C(=O)N[C@@H](C)C(=O)N[C@@H](CS)C(=O)O` (H-AEYLCEAC-OH), the “ACE inhibition rate (%) Concentration (2 mg/mL)” value in assay [1] is 29.3266%. Besides, the inhibition at 2000 µg/mL in assay [1] (read-out: ACE inhibition rate (%) Concentration (2 mg/mL)) is 29.3%. The “ACE inhibition rate (%) Concentration (1 mg/mL)” value in assay [2] (setting [6]) worked out at 14.2857%. Moreover, the inhibition at 1000 µg/mL in assay [2] (peptide 1 mg/mL, HHL 5 mM, ACE 0.1 U/mL, 37°C, 5 min pre-incubation, 60 min, HPLC of hippuric acid, triplicate, read-out: ACE inhibition rate (%) Concentration (1 mg/mL)) came out at 14.3%. Moreover, in assay [2] (peptide 0.2–15 mg/mL, HPLC method, regression y = −0.0073x^2 + 0.1616x −0.0105 (R^2 = 0.99), read-out: IC50 of ACE inhibition), the IC50 worked out at 4.29 mM. Besides, in assay [3], the “Km/Vmax value with increasing inhibitory peptide concentration” value is listed as “increased”. Take `C[C@H](CS)C(=O)N1CCC[C@H]1C(=O)O` [captopril]: the “blood pressure reduction in rats with hypertension, overall comparison” value in assay [4] (all data of single and 4-week administration in SHRs) is given as “better than AEYLCEAC”. For the same compound, in assay [4] (male SHRs, gavage, peptide 15 mg/kg BW, captopril 10 mg/kg BW, 3 to 12 h, vs water control, p < 0.01), the “SBP after a single intragastric administration” value was “SBP in control group was significantly higher than that in the peptide group and positive group”. As to `CCOC(=O)[C@H](CCc1ccccc1)N[C@@H](C)C(=O)N1CCC[C@H]1C(=O)O` [enalapril], the ACE inhibitory pattern entry in the assay with ACE (setting [7]) is “competitive inhibitors”. On to `NCCCC[C@H](N[C@@H](CCc1ccccc1)C(=O)O)C(=O)N1CCC[C@H]1C(=O)O` [lisinopril], for which, in the assay on ACE (setting [7]), the ACE inhibitory pattern entry is reported as “competitive inhibitors”. For “ALVY [from Gac Seed Protein Hydrolysates]”, the ACE inhibitory pattern result in the assay with ACE (setting [8]) is on record as “competitive”. For AVKVL [derived from hazelnut], the ACE inhibitory pattern result in the assay on ACE (setting [9]) was “Non-competitive”. Regarding EPNGLLLPQY [from walnut protein], in the assay with ACE (setting [10]), the ACE inhibitory pattern result is “mixed pattern”.

With ETSGMKPTEL [isolated from longan seeds], in the assay on ACE (setting [9]), the ACE inhibitory pattern result is recorded as “Non-competitive”. For ISSMGILVCL [isolated from longan seeds], the ACE inhibitory pattern entry in the assay on ACE (setting [9]) is listed as “Non-competitive”. As to LDVSWASD, the “ACE inhibition rate (%) Concentration (2 mg/mL)” value in assay [1] stood at 13.9971%. The “ACE inhibition rate (%) Concentration (1 mg/mL)” value in assay [2] (setting [6]) worked out at 3.6918%.

In the case of LSSNLHG, the “ACE inhibition rate (%) Concentration (2 mg/mL)” value in assay [1] was “–5.7205%”. In addition, in assay [2] (setting [6]), the “ACE inhibition rate (%) Concentration (1 mg/mL)” value is reported as “–1.1236%”. As for “NMAINPSKENLCSTFCK [isolated from casein hydrolysates]”, the ACE inhibitory pattern result with ACE (setting [10]) is “mixed pattern”. For the compound QAGLSPVR [from tilapia skin gelatin], the ACE inhibitory pattern result with ACE (setting [9]) is given as “Non-competitive”. For QEVVMGEC, the “ACE inhibition rate (%) Concentration (2 mg/mL)” value in assay [1] was “–5.0688%”. Further, the “ACE inhibition rate (%) Concentration (1 mg/mL)” value in assay [2] (setting [6]) is “–3.8523%”. As to “QLVP [from Mycelia of Ganoderma Lucidum]”, the ACE inhibitory pattern entry with ACE (setting [10]) is reported as “mixed pattern”.

RSNDGPI: in assay [1], the “ACE inhibition rate (%) Concentration (2 mg/mL)” value is recorded as “–4.3447%”. Moreover, the “ACE inhibition rate (%) Concentration (1 mg/mL)” value in assay [2] (setting [6]) is on record as “–13.9647%”.

Take “RVPSL [hydrolyzed from egg white protein]”: the Ren1 expression entry in assay [5] is “downregulated”.

As for “SSYYPFK [from naked oat globulin hydrolysates]”, the ACE inhibitory pattern result with ACE (setting [8]) is reported as “competitive”.

For the compound TLVGR [derived from hazelnut], the ACE inhibitory pattern entry with ACE (setting [9]) is on record as “Non-competitive”. As to TNEVEGPS, the “ACE inhibition rate (%) Concentration (2 mg/mL)” value in assay [1] was 7.9218%. Moreover, the “ACE inhibition rate (%) Concentration (1 mg/mL)” value in assay [2] (setting [6]) is on record as “–4.8796%”. Turning to VGLPNSR [from tilapia skin gelatin], in the assay on ACE (setting [9]), the ACE inhibitory pattern entry is on record as “Non-competitive”. As to VILGDADLP, the “ACE inhibition rate (%) Concentration (2 mg/mL)” value in assay [1] is on record as 4.7219%. The “ACE inhibition rate (%) Concentration (1 mg/mL)” value in assay [2] (setting [6]) is given as 1.6051%. With YLVR [derived from hazelnut], the ACE inhibitory pattern result in the assay with ACE (setting [9]) was “Non-competitive”.

The record behind these values is publication PMC9445672, “A novel angiotensin-I-converting enzyme inhibitory peptide from oyster: Simulated gastro-intestinal digestion, molecular docking, inhibition kinetics and antihypertensive effects in rats” (Frontiers in Nutrition, 2022).
